According to patent publication US20230123334A1, “AMINO LIPID COMPOUND, PREPARATION METHOD THEREFOR, AND APPLICATION THEREOF” (SHENZHEN SHENXIN BIOTECHNOLOGY CO., LTD., priority 2020, published 2023):

System: HEK293 cells
Assay: Preliminary screening as mRNA vectors, EGFP mRNA transfection of HEK293 cells
Format: cell-based
Conditions: EGFP mRNA 50 ng per well, 96-well plates; percentage of GFP fluorescent cells relative to total number of cells (Hoechst)
Summary of the method: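 Screening format: EGFP mRNA transfection (50 ng/well) into HEK293 in 10% FBS-supplemented DMEM. Percent green fluorescent cells, normalised to Hoechst nuclear count, gave the value; Lipofectamine2000 was the reference transfectant.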

SMILES	Absolute mRNA transfection efficiency in HEK293 cells [%]
CCCCCCCCCCCCNc1nc(NCCN2CCN(C)CC2)nc(SCCCCCCCCCCC)n1 [Compound D5S11N12]	22.8
CCCCCCCCCCCCCNc1nc(NCCN2CCN(C)CC2)nc(SCCCCCCCCCCC)n1 [Compound D5S11N13]	11.2
CCCCCCCCCCCCCCCNc1nc(NCCN2CCN(C)CC2)nc(SCCCCCCCCCCC)n1 [Compound D5S11N15]	20.4
CCCCCCCCCCCCCCCCNc1nc(NCCN2CCN(C)CC2)nc(SCCCCCCCCCCC)n1 [Compound D5S11N16]	3.9
CCCCCCCCCCCCCCCCCCNc1nc(NCCN2CCN(C)CC2)nc(SCCCCCCCCCCC)n1 [Compound D5S11N18]	4.7
CCCCCCCCCCCCSc1nc(NCCCCCC)nc(NCCN2CCN(C)CC2)n1 [Compound D5S12N6]	0.3
CCCCCCCCCCCCSc1nc(NCCCCCCC)nc(NCCN2CCN(C)CC2)n1 [Compound D5S12N7]	9.9
CCCCCCCCCCCCSc1nc(NCCCCCCCC)nc(NCCN2CCN(C)CC2)n1 [Compound D5S12N8]	22.6
CCCCCCCCCCCCSc1nc(NCCCCCCCCC)nc(NCCN2CCN(C)CC2)n1 [Compound D5S12N9]	26.5
CCCCCCCCCCCCSc1nc(NCCCCCCCCCCC)nc(NCCN2CCN(C)CC2)n1 [Compound D5S12N11]	1.1
CCCCCCCCCCCCNc1nc(NCCN2CCN(C)CC2)nc(SCCCCCCCCCCCC)n1 [Compound D5S12N12]	3.5
CCCCCCCCCCCCCNc1nc(NCCN2CCN(C)CC2)nc(SCCCCCCCCCCCC)n1 [Compound D5S12N13]	0.4
CCCCCCCCCCCCCCCNc1nc(NCCN2CCN(C)CC2)nc(SCCCCCCCCCCCC)n1 [Compound D5S12N15]	0.8
CCCCCCCCCCCCCCCCNc1nc(NCCN2CCN(C)CC2)nc(SCCCCCCCCCCCC)n1 [Compound D5S12N16]	3.7
CCCCCCCCCCCCCCCCCCNc1nc(NCCN2CCN(C)CC2)nc(SCCCCCCCCCCCC)n1 [Compound D5S12N18]	0.0
CCCCCCCCCCCCCCSc1nc(NCCCCCC)nc(NCCN2CCN(C)CC2)n1 [Compound D5S14N6]	48.0
CCCCCCCCCCCCCCSc1nc(NCCCCCCC)nc(NCCN2CCN(C)CC2)n1 [Compound D5S14N7]	59.0
CCCCCCCCCCCCCCSc1nc(NCCCCCCCC)nc(NCCN2CCN(C)CC2)n1 [Compound D5S14N8]	65.6
CCCCCCCCCCCCCCSc1nc(NCCCCCCCCC)nc(NCCN2CCN(C)CC2)n1 [Compound D5S14N9]	44.9
CCCCCCCCCCCCCCSc1nc(NCCCCCCCCCCC)nc(NCCN2CCN(C)CC2)n1 [Compound D5S14N11]	19.8

SMILES	Absolute mRNA transfection efficiency in HEK293 cells [%]
CCCCCCCCCCCCCCSc1nc(NCCCCCCCCCCCC)nc(NCCN2CCN(C)CC2)n1 [Compound D5S14N12]	11.3
CCCCCCCCCCCCCCSc1nc(NCCCCCCCCCCCCC)nc(NCCN2CCN(C)CC2)n1 [Compound D5S14N13]	12.9
CCCCCCCCCCCCCCCNc1nc(NCCN2CCN(C)CC2)nc(SCCCCCCCCCCCCCC)n1 [Compound D5S14N15]	0.3
CCCCCCCCCCCCCCCCNc1nc(NCCN2CCN(C)CC2)nc(SCCCCCCCCCCCCCC)n1 [Compound D5S14N16]	0.6
CCCCCCCCCCCCCCCCCCNc1nc(NCCN2CCN(C)CC2)nc(SCCCCCCCCCCCCCC)n1 [Compound D5S14N18]	0.6
CCCCCCCCCCCCCCCSc1nc(NCCCCCC)nc(NCCN2CCN(C)CC2)n1 [Compound D5S15N6]	45.9
CCCCCCCCCCCCCCCSc1nc(NCCCCCCC)nc(NCCN2CCN(C)CC2)n1 [Compound D5S15N7]	25.2
CCCCCCCCCCCCCCCSc1nc(NCCCCCCCC)nc(NCCN2CCN(C)CC2)n1 [Compound D5S15N8]	94.7
CCCCCCCCCCCCCCCSc1nc(NCCCCCCCCC)nc(NCCN2CCN(C)CC2)n1 [Compound D5S15N9]	22.3
CCCCCCCCCCCCCCCSc1nc(NCCCCCCCCCCC)nc(NCCN2CCN(C)CC2)n1 [Compound D5S15N11]	12.7
CCCCCCCCCCCCCCCSc1nc(NCCCCCCCCCCCC)nc(NCCN2CCN(C)CC2)n1 [Compound D5S15N12]	4.3
CCCCCCCCCCCCCCCSc1nc(NCCCCCCCCCCCCC)nc(NCCN2CCN(C)CC2)n1 [Compound D5S15N13]	1.5
CCCCCCCCCCCCCCCNc1nc(NCCN2CCN(C)CC2)nc(SCCCCCCCCCCCCCCC)n1 [Compound D5S15N15]	0.7
CCCCCCCCCCCCCCCCNc1nc(NCCN2CCN(C)CC2)nc(SCCCCCCCCCCCCCCC)n1 [Compound D5S15N16]	1.4
CCCCCCCCCCCCCCCCCCNc1nc(NCCN2CCN(C)CC2)nc(SCCCCCCCCCCCCCCC)n1 [Compound D5S15N18]	1.7
CCCCCCCCCCCCCCCCSc1nc(NCCCCCC)nc(NCCN2CCN(C)CC2)n1 [Compound D5S16N6]	63.2
CCCCCCCCCCCCCCCCSc1nc(NCCCCCCC)nc(NCCN2CCN(C)CC2)n1 [Compound D5S16N7]	82.6
CCCCCCCCCCCCCCCCSc1nc(NCCCCCCCC)nc(NCCN2CCN(C)CC2)n1 [Compound D5S16N8]	72.2
CCCCCCCCCCCCCCCCSc1nc(NCCCCCCCCC)nc(NCCN2CCN(C)CC2)n1 [Compound D5S16N9]	68.1
CCCCCCCCCCCCCCCCSc1nc(NCCCCCCCCCCC)nc(NCCN2CCN(C)CC2)n1 [Compound D5S16N11]	45.0

SMILES	Absolute mRNA transfection efficiency in HEK293 cells [%]
CCCCCCCCCCCCCCCCSc1nc(NCCCCCCCCCCCC)nc(NCCN2CCN(C)CC2)n1 [Compound D5S16N12]	3.4
CCCCCCCCCCCCCCCCSc1nc(NCCCCCCCCCCCCC)nc(NCCN2CCN(C)CC2)n1 [Compound D5S16N13]	0.7
CCCCCCCCCCCCCCCCSc1nc(NCCCCCCCCCCCCCCC)nc(NCCN2CCN(C)CC2)n1 [Compound D5S16N15]	0.1
CCCCCCCCCCCCCCCCNc1nc(NCCN2CCN(C)CC2)nc(SCCCCCCCCCCCCCCCC)n1 [Compound D5S16N16]	0.1
CCCCCCCCCCCCCCCCCCNc1nc(NCCN2CCN(C)CC2)nc(SCCCCCCCCCCCCCCCC)n1 [Compound D5S16N18]	0.2
CCCCCCCCCCCCCCCCCCSc1nc(NCCCCCC)nc(NCCN2CCN(C)CC2)n1 [Compound D5S18N6]	73.2
CCCCCCCCCCCCCCCCCCSc1nc(NCCCCCCC)nc(NCCN2CCN(C)CC2)n1 [Compound D5S18N7]	67.7
CCCCCCCCCCCCCCCCCCSc1nc(NCCCCCCCC)nc(NCCN2CCN(C)CC2)n1 [Compound D5S18N8]	33.4
CCCCCCCCCCCCCCCCCCSc1nc(NCCCCCCCCC)nc(NCCN2CCN(C)CC2)n1 [Compound D5S18N9]	11.6
CCCCCCCCCCCCCCCCCCSc1nc(NCCCCCCCCCCC)nc(NCCN2CCN(C)CC2)n1 [Compound D5S18N11]	1.1
CCCCCCCCCCCCCCCCCCSc1nc(NCCCCCCCCCCCC)nc(NCCN2CCN(C)CC2)n1 [Compound D5S18N12]	1.7
CCCCCCCCCCCCCCCCCCSc1nc(NCCCCCCCCCCCCC)nc(NCCN2CCN(C)CC2)n1 [Compound D5S18N13]	1.4
CCCCCCCCCCCCCCCCCCSc1nc(NCCCCCCCCCCCCCCC)nc(NCCN2CCN(C)CC2)n1 [Compound D5S18N15]	0.1
CCCCCCCCCCCCCCCCCCSc1nc(NCCCCCCCCCCCCCCCC)nc(NCCN2CCN(C)CC2)n1 [Compound D5S18N16]	0.1
CCCCCCCCCCCCCCCCCCNc1nc(NCCN2CCN(C)CC2)nc(SCCCCCCCCCCCCCCCCCC)n1 [Compound D5S18N18]	0.0
CCCCCCNc1nc(NCCCN(C)C)nc(SCCCCCC)n1 [Compound D6S6N6]	0.0
CCCCCCCNc1nc(NCCCN(C)C)nc(SCCCCCC)n1 [Compound D6S6N7]	0.2
CCCCCCCCNc1nc(NCCCN(C)C)nc(SCCCCCC)n1 [Compound D6S6N8]	0.4
